Source: PubChem BioAssay (NCI)
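Grown in 96-well plates, cells were treated for 48 hours with each compound at five concentrations. Insufficient inhibition: endpoint recorded as highest concentration tested. Abbreviation: GI50, concentration required for 50% inhibition of growth. Definition used: TGI = concentration required for complete inhibition of growth.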

Tests used:
Experiment in all cases: NCI-60 cell line screen, 48 h
SK-MEL-28 melanoma = tested on: SK-MEL-28 melanoma
HL-60(TB) leukemia = tested on: HL-60(TB) leukemia
COLO 205 colon = tested on: COLO 205 colon
OVCAR-3 ovarian = tested on: OVCAR-3 ovarian
CAKI-1 renal = tested on: CAKI-1 renal
K-562 leukemia = tested on: K-562 leukemia
LOX IMVI melanoma = tested on: LOX IMVI melanoma
NCI-H226 lung = tested on: NCI-H226 lung
KM12 colon = tested on: KM12 colon
T-47D breast = tested on: T-47D breast

| SMILES | TGI (SK-MEL-28 melanoma) [µM] | TGI (HL-60(TB) leukemia) [µM] | TGI (COLO 205 colon) [µM] | TGI (OVCAR-3 ovarian) [µM] | TGI (CAKI-1 renal) [µM] | TGI (K-562 leukemia) [µM] | TGI (LOX IMVI melanoma) [µM] | TGI (NCI-H226 lung) [µM] | TGI (KM12 colon) [µM] | GI50 (SK-MEL-28 melanoma) [µM] | GI50 (COLO 205 colon) [µM] | GI50 (OVCAR-3 ovarian) [µM] | GI50 (CAKI-1 renal) [µM] | GI50 (K-562 leukemia) [µM] | GI50 (LOX IMVI melanoma) [µM] | GI50 (NCI-H226 lung) [µM] | GI50 (KM12 colon) [µM] | GI50 (T-47D breast) [µM] | TGI (T-47D breast) [µM] | GI50 (HL-60(TB) leukemia) [µM] |
| --- | --- | --- | --- | --- | --- | --- | --- | --- | --- | --- | --- | --- | --- | --- | --- | --- | --- | --- | --- | --- |
| O=C(/C=C/c1ccccc1)Oc1cccc2cccnc12 | > 86.3 | > 28.1 | 21.1 | 24.6 | 83.2 | > 100 | > 100 | > 66.7 | 32.1 | – | – | – | – | – | – | – | – | – | – | – |
| C/C=C/C(C#N)O[Si](C)(C)C (centres undefined) | > 100 | > 100 | > 100 | > 100 | > 100 | – | – | > 100 | > 100 | – | – | – | – | – | – | – | – | – | – | – |
| Cc1nc(C(N)=O)c(N)n1CCN1CCN(C(=O)CCCCCCCCCCNC2N=CNc3nc[nH]c32)CC1 (centres undefined) | 79.1 | 60.8 | > 100 | > 100 | – | > 100 | > 100 | – | > 100 | – | – | – | – | – | – | – | – | – | – | – |
| O=C1OCC2=C1C(c1cccc(F)c1)c1cc3c(cc1N2CCO)OCO3 (centres undefined) | > 50 | – | 15.1 | > 50 | > 50 | > 50 | > 50 | > 50 | > 50 | 20.3 | 1.48 | 1.27 | 1.24 | 0.353 | 2.35 | > 50 | 1.48 | 2.18 | > 50 | – |
| COC1=NCc2ccccc2-c2ccccc21 | > 100 | > 100 | – | > 100 | – | > 100 | > 100 | > 100 | > 100 | – | – | – | – | – | – | – | – | – | – | – |
| CC(=O)c1c(C(F)(F)F)n([O-])c2ccccc2[n+]1=O | 18 | – | 7.27 | 2.61 | 3.8 | > 100 | 4.58 | 3.91 | 3.43 | 3.48 | 2.16 | 0.746 | 1.21 | 1.26 | 1.31 | 1.46 | 1.19 | 0.748 | 4.02 | – |
| N#CC(N)=Nc1ccccc1 | > 100 | > 100 | > 100 | > 100 | > 100 | > 100 | > 100 | > 100 | > 100 | – | – | – | – | – | – | – | – | – | – | – |
| CN1N=CSC12C(=O)N(c1ccccc1)C(=O)N2c1ccccc1 (centres undefined) | > 100 | > 100 | > 100 | > 100 | > 100 | > 100 | > 100 | – | > 100 | – | – | – | – | – | – | – | – | – | – | – |
| Cc1c(/C=N/NC(=O)c2ccccc2O)c(=O)n(-c2ccccc2)n1C | > 100 | > 100 | > 100 | > 100 | – | > 100 | > 100 | > 100 | > 100 | – | – | – | – | – | – | – | – | – | – | – |
| COC(=O)/C(=N\NC(C)(C)C)C(C(=O)OC)C(=O)C(=O)Nc1cc(Cl)ccc1Cl (centres undefined) | > 100 | > 100 | > 100 | > 100 | > 100 | > 100 | > 100 | > 100 | > 100 | – | – | – | – | – | – | – | – | – | – | – |
| CN(C(=O)/C=C/c1ccccc1)C1C2CN3CCC(O2)C13 (centres undefined) | > 100 | > 100 | > 100 | > 100 | > 100 | > 100 | > 100 | > 100 | > 100 | – | – | – | – | – | – | – | – | – | – | – |
| Cn1c(=O)c(N=Nc2c(=O)n(C)c(=O)n3c2[nH]c2ccccc23)c2[nH]c3ccccc3n2c1=O | > 100 | > 100 | > 100 | > 100 | > 100 | > 100 | > 100 | > 100 | > 100 | – | – | – | – | – | – | – | – | – | – | – |
| COC(=O)C1=CO[C@@H](OC2CC(CO)C(O)C(O)C2O)[C@@H]2[C@@H](C)[C@@H](OC(=O)/C=C/c3ccccc3)[C@@H](O)[C@H]12 (some centres undefined) (tested in a mixture with another compound) | > 100 | > 100 | > 100 | > 100 | > 100 | > 100 | > 100 | > 100 | > 100 | – | – | – | – | – | – | – | – | – | – | – |
| O=C(Oc1cccnc1)c1cccnc1Nc1ccnc(C(F)(F)F)c1 | > 100 | – | 72.4 | 62.2 | 30.2 | > 100 | 26 | 71.4 | 18.2 | 38.1 | 27.4 | 18.3 | 4.73 | 5.18 | 8.16 | 12.3 | 4.01 | 36.3 | > 100 | – |
| Nc1ncnc2c1ncn2C1OC(CSCC(F)(F)F)C(O)C1O (centres undefined) | > 100 | > 100 | > 100 | > 100 | > 100 | > 100 | > 100 | > 100 | > 100 | – | – | – | – | – | – | – | – | – | – | – |
| O=C(O)CCNS(=O)(=O)c1ccc(NC(=O)c2ccccc2)cc1 | > 100 | > 100 | > 100 | > 100 | > 100 | > 100 | > 100 | – | > 100 | – | – | – | – | – | – | – | – | – | – | – |
| COc1cc(C)ccc1C(=O)c1ccc(C)cc1OC | > 100 | – | 9.34 | 6.55 | 92.3 | > 100 | > 100 | 72.7 | > 100 | 6.96 | 2.55 | 2.1 | 2.3 | 0.619 | 7.88 | 4.45 | 0.926 | 4.67 | > 100 | – |
| N#CC(C#N)=C/C=C(\Cl)c1ccc(Cl)cc1 | 45 | – | > 52.1 | 17.4 | 12.6 | – | – | 33.9 | 44.1 | 2.38 | 7.72 | 6.5 | 3.78 | 0.7 | 1.18 | 7.69 | 15 | 13.8 | 49.1 | – |
| COc1ccc(-c2noc(C(=O)O)c2-c2cc(OC)c(OC)c(OC)c2)cc1 | > 100 | 6.41 | 9.49 | > 100 | > 100 | > 100 | > 100 | > 100 | > 100 | 37.3 | 1.95 | 1.71 | 2.35 | 0.609 | 5.12 | > 100 | 0.595 | – | – | 2.19 |
